Results on two compounds are retold here after publication PMC4178217, “Quinoline 3-sulfonamides inhibit lactate dehydrogenase A and reverse aerobic glycolysis in cancer cells” (Cancer & Metabolism, 2013).

Read-outs that look alike come from different tables or passages of the source.

The target of experiment [1] is Cyclooxygenase 2 (Homo sapiens, UniProt P35354). Nature of the experiment: Cyclooxygenase 2 ANT. It counts as biochemical. As to conditions: antagonist; read-out: pIC50 Cyclooxygenase 2 ANT (converted). An excerpt:
(§1) ANT = antagonist (pIC50), AG = agonist (pEC50). pIC50 and pEC50 are the negative logarithms10 of IC50 and EC50, respectively. Click here for file

The target of experiment [2] is T1, Serotonin Receptor 5HT2A (Homo sapiens, UniProt P28223). Nature of the experiment: Serotonin Receptor 5HT2A ANT. As to conditions: antagonist; read-out: pIC50 Serotonin Receptor 5HT2A ANT (converted).
Source text: as §1

Experiment [3] concerns the target Potassium Channel Kv1.5 (Homo sapiens, UniProt P22460). Briefly: Potassium Channel Kv1.5 ANT. As to conditions: antagonist; read-out: pIC50 Potassium Channel Kv1.5 ANT (converted).
Source text: as §1

Experiment [4] has as its target Adrenergic Receptor a1B (Homo sapiens, UniProt P35368). Briefly: Adrenergic Receptor a1B ANT.
Source text: as §1

For experiment [5], the target named is T2, Serotonin Receptor 5HT2C (Homo sapiens, UniProt P28335).
T2 sequence (P28335 33-458): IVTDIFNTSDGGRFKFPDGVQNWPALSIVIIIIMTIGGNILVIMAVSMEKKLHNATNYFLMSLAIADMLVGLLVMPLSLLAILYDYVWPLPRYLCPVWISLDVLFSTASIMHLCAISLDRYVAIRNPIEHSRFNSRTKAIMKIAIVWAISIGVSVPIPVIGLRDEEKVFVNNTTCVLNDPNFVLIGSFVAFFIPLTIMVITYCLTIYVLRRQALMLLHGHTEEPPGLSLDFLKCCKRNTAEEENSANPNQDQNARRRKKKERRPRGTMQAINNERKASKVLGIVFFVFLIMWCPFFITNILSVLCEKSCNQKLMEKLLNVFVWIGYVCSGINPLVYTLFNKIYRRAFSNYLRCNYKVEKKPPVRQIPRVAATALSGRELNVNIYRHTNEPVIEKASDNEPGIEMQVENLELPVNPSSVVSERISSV
Briefly: Serotonin Receptor 5HT2C AG. Particulars: agonist; read-out: pEC50 Serotonin Receptor 5HT2C AG (converted).
Source text: as §1

The target in experiment [6] is Serotonin Receptor 5H1. Briefly: Serotonin Receptor 5H1 ANT. Particulars: antagonist.
Source text: as §1

The target of experiment [7] is Monoamine Oxidase B (Homo sapiens, UniProt P27338). Nature of the experiment: Monoamine Oxidase B ANT. Particulars: antagonist; read-out: pIC50 Monoamine Oxidase B ANT (converted). It counts as biochemical.
Source text: as §1

Experiment [8] concerns the target Potassium Channel KCNQ1 (Homo sapiens, UniProt P51787). Briefly: Potassium Channel KCNQ1 ANT. As to conditions: antagonist; read-out: pIC50 Potassium Channel KCNQ1 ANT (converted).
Source text: as §1

Experiment [9] deals with Serotonin Transporter (Homo sapiens, UniProt P31645). Nature of the experiment: Serotonin Transporter ANT. As to conditions: antagonist; read-out: pIC50 Serotonin Transporter ANT (converted).
Source text: as §1

Experiment [10] addresses T3, Nicotinic Ach Receptor A1 (Homo sapiens, UniProt P02708+P07510+Q07001). Briefly: Nicotinic Ach Receptor A1 AG.
Source text: as §1

In experiment [11] the target is T1, Serotonin Receptor 5HT2A. Nature of the experiment: Serotonin Receptor 5HT2A AG. Particulars: agonist; read-out: pEC50 Serotonin Receptor 5HT2A AG (converted).
Source text: as §1

The target in experiment [12] is T3, Nicotinic Ach Receptor A1. Briefly: Nicotinic Ach Receptor A1 ANT.
Source text: as §1

Experiment [13] addresses Dopamin Receptor D2 (Homo sapiens, UniProt P14416). Briefly: Dopamin Receptor D2 AG. Particulars: agonist; read-out: pEC50 Dopamin Receptor D2 AG (converted).
Source text: as §1

The target in experiment [14] is Phosphoinositide 3-kinase g (Homo sapiens, UniProt P48736). Briefly: Phosphoinositide 3-kinase g ANT. As to conditions: antagonist; read-out: pIC50 Phosphoinositide 3-kinase g ANT (converted). Format: biochemical.
Source text: as §1

Experiment [15] concerns the target Opioid Receptor k (Homo sapiens, UniProt P41145). Nature of the experiment: Opioid Receptor k ANT. As to conditions: antagonist; read-out: pIC50 Opioid Receptor k ANT (converted).
Source text: as §1

For experiment [16], the target named is Aurora B Kinase (Homo sapiens, UniProt Q96GD4). Briefly: Aurora B Kinase ANT. It counts as biochemical. Particulars: antagonist; read-out: pIC50 Aurora B Kinase ANT (converted).
Source text: as §1

The target of experiment [17] is Adenosine Receptor a2A (Homo sapiens, UniProt P29274). Nature of the experiment: Adenosine Receptor a2A ANT. As to conditions: antagonist; read-out: pIC50 Adenosine Receptor a2A ANT (converted).
Source text: as §1

Experiment [18] concerns the target T4, Adrenergic Receptor b2 (Homo sapiens, UniProt P07550). Nature of the experiment: Adrenergic Receptor b2 AG. Particulars: agonist; read-out: pEC50 Adrenergic Receptor b2 AG (converted).
Source text: as §1

For experiment [19], the target named is Cannabinoid receptor type 2 (Homo sapiens, UniProt P34972). Briefly: Cannabinoid receptor type 2 AG. As to conditions: agonist; read-out: pEC50 Cannabinoid receptor type 2 AG (converted).
Source text: as §1

For experiment [20], the target named is T5, Serotonin Receptor 5HT3 (Homo sapiens, UniProt P46098).
T5 sequence (P46098 24-478): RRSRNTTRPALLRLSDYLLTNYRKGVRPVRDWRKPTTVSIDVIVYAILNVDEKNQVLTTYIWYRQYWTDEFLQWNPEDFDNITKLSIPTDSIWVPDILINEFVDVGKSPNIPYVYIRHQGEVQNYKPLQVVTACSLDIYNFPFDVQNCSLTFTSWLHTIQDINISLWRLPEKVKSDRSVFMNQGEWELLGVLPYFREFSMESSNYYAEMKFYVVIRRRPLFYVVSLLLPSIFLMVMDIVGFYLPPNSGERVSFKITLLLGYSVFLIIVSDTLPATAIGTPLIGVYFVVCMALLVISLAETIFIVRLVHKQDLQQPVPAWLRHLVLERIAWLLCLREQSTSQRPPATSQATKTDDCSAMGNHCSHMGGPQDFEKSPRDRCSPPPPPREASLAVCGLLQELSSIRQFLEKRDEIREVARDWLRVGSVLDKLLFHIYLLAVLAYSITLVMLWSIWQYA
Briefly: Serotonin Receptor 5HT3 AG. Particulars: agonist; read-out: pEC50 Serotonin Receptor 5HT3 AG (converted).
Source text: as §1

Experiment [21] concerns the target T4, Adrenergic Receptor b2. Briefly: Adrenergic Receptor b2 ANT. Particulars: antagonist; read-out: pIC50 Adrenergic Receptor b2 ANT (converted).
Source text: as §1

Experiment [22] has as its target Lymphocyte-specific Tyrosine Kinase (Homo sapiens, UniProt P06239). Nature of the experiment: Lymphocyte-specific Tyrosine Kinase ANT. It counts as biochemical. Particulars: antagonist; read-out: pIC50 Lymphocyte-specific Tyrosine Kinase ANT (converted).
Source text: as §1

T3 sequence (P02708 21-457): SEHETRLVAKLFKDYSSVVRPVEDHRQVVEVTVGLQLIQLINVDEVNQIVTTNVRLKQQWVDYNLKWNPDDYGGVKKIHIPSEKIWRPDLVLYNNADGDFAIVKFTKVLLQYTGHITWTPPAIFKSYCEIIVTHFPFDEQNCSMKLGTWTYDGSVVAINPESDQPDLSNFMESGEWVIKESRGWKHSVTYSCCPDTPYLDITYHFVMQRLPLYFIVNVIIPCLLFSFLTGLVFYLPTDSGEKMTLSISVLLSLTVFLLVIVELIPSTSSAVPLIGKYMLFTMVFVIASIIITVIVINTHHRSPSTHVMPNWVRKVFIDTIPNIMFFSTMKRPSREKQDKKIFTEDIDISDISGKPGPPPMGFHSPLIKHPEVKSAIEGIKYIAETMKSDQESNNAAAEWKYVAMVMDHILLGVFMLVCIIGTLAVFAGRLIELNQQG
T3 sequence (P11230 24-501 partner): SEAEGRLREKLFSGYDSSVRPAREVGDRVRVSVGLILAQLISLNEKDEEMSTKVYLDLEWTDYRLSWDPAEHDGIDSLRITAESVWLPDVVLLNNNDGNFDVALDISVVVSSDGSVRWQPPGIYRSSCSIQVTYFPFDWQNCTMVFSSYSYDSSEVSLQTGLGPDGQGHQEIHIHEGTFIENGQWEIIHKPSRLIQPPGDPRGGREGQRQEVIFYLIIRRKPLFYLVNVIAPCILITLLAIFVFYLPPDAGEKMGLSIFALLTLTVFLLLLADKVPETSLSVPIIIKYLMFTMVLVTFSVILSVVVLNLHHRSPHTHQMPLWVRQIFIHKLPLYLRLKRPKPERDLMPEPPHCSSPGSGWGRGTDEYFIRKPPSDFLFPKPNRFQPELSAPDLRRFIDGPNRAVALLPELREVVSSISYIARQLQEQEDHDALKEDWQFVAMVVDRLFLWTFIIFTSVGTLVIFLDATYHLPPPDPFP
T3 sequence (Q07001 22-517): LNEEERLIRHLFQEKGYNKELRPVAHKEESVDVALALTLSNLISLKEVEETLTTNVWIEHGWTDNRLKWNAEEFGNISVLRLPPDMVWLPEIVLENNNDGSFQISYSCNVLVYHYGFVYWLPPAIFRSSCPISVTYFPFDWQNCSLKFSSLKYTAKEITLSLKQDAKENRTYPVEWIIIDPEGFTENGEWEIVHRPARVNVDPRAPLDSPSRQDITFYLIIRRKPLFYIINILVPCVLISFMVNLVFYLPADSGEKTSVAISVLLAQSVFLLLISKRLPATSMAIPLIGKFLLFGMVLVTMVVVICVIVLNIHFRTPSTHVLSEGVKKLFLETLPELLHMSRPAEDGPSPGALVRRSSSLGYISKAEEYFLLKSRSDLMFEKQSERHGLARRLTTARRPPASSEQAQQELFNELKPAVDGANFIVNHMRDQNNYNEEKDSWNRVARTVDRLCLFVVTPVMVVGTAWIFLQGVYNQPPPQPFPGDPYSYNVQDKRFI
T3 sequence (P07510 23-517): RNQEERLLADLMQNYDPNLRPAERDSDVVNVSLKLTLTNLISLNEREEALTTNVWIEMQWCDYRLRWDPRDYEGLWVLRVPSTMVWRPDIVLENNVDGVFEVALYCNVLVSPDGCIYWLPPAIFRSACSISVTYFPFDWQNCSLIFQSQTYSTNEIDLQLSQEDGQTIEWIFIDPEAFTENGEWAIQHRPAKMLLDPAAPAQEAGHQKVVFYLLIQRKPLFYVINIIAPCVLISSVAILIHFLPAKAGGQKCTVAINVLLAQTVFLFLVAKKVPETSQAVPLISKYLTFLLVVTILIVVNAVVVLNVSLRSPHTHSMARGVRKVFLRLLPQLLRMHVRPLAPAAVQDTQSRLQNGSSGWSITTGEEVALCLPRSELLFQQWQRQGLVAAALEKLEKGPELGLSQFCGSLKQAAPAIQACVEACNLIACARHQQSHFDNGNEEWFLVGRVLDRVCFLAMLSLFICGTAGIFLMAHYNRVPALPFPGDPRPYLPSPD
T4 sequence (P07550 whole entry): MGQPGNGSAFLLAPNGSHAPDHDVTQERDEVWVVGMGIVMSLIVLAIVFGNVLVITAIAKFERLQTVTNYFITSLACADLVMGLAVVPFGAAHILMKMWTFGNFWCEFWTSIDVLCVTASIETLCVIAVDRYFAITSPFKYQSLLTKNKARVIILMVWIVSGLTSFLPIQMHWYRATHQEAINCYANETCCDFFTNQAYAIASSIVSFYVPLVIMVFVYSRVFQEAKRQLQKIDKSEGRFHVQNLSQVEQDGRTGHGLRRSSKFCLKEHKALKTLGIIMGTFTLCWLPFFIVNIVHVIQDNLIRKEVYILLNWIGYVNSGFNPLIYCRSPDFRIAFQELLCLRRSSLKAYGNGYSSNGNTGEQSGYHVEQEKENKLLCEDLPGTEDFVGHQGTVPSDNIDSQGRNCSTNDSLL
T1 sequence (P28223 whole entry): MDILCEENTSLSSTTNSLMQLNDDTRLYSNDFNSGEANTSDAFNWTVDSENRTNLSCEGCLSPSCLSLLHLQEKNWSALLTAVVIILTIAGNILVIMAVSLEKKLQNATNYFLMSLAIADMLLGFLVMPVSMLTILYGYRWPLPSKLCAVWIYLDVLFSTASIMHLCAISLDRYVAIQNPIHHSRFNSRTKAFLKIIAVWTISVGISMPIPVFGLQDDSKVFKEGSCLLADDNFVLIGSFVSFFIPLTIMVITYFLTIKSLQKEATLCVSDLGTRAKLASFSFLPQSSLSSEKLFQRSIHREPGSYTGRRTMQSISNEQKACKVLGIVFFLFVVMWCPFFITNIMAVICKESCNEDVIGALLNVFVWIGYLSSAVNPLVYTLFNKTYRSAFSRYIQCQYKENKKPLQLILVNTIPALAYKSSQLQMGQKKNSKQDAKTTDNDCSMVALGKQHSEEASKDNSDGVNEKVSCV
Sequence of Adrenergic Receptor a1B (P35368 whole entry): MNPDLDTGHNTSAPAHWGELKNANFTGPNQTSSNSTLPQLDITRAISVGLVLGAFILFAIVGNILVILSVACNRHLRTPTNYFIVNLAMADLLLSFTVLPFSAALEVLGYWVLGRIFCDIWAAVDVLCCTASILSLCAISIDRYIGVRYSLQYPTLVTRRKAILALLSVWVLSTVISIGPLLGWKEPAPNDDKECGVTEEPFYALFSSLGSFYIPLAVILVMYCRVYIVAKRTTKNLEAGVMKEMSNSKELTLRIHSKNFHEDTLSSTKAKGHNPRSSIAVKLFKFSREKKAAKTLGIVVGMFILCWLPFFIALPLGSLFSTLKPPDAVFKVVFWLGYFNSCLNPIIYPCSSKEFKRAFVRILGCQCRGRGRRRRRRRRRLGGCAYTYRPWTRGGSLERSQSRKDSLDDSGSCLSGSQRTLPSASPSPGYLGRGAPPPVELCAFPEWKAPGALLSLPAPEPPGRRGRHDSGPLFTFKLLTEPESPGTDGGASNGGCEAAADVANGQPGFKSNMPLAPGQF
Sequence of Dopamin Receptor D2 (P14416 whole entry): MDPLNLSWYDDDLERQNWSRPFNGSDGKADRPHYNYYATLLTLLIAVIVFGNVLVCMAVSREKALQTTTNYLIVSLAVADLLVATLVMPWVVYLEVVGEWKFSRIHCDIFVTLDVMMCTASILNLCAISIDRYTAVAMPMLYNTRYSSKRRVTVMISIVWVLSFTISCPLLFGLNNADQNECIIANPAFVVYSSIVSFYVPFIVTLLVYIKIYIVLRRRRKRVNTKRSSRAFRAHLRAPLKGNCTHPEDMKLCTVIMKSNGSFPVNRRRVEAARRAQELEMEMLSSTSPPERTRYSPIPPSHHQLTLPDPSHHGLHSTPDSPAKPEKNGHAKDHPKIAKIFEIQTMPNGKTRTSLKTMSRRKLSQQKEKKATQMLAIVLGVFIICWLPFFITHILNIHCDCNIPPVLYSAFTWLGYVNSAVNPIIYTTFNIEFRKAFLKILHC
Sequence of Potassium Channel Kv1.5 (P22460 whole entry): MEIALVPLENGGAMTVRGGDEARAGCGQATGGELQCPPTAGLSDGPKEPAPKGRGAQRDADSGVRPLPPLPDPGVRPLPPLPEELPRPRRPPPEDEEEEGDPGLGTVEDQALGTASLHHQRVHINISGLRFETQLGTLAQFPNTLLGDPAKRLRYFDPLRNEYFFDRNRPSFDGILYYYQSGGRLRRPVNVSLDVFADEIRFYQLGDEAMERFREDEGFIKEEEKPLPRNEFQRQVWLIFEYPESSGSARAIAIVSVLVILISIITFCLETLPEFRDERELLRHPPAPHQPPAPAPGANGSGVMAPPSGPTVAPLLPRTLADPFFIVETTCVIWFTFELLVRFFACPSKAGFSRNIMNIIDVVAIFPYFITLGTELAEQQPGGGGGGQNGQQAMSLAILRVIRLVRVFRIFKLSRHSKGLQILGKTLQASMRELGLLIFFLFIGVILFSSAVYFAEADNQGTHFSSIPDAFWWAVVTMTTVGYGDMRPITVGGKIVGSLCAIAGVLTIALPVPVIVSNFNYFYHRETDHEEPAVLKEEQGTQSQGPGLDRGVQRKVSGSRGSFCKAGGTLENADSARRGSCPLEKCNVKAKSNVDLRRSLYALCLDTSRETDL
Sequence of Adenosine Receptor a2A (P29274 whole entry, species assumed): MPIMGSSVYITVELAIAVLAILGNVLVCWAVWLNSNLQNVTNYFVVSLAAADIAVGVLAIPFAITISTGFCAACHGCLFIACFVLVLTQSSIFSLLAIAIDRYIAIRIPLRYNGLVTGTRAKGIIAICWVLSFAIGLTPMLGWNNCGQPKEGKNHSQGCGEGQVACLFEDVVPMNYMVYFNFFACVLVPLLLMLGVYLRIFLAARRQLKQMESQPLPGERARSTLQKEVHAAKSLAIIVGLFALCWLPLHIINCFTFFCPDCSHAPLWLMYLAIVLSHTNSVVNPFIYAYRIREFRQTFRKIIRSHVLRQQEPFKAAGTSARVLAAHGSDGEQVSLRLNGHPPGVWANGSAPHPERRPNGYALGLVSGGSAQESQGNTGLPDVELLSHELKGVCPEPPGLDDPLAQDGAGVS

On to `COc1ncc(-c2ccc3c(Nc4cc(C(=O)O)cc(C5CCCC5)c4)c(S(=O)(=O)NC4CC4)cnc3c2)c(OC)n1` [Compound 2], for which the IC50 in [1] was 63.1 µM; in [2], 31.6 µM; in [3] it was 50.1 µM; in [4] (antagonist, read-out: pIC50 Adrenergic Receptor a1B ANT (converted)) it was 31.6 µM; in experiment [7], 15.8 µM; in experiment [8], 25.1 µM. Further, the IC50 in experiment [9] is 100 µM; in experiment [12] (antagonist, read-out: pIC50 Nicotinic Ach Receptor A1 ANT (converted)), 15.8 µM; in experiment [14], 31.6 µM; in experiment [15], 50.1 µM; in experiment [16] it was 31.6 µM; in experiment [17] it was 31.6 µM. Moreover, the IC50 in [21] and in experiment [22] was 31.6 µM each time. Moreover, the EC50 in experiment [5] was 39.8 µM; in experiment [10] (agonist, read-out: pEC50 Nicotinic Ach Receptor A1 AG (converted)), 50.1 µM; in [11], 39.8 µM; in [13] it was 100 µM; in [18], 31.6 µM; in experiment [19], 31.6 µM. In addition, the EC50 in [20] is 39.8 µM. Further, in experiment [6], the “pIC50 Serotonin Receptor 5H1 ANT” value is 4.4.
Take `COc1ncc(-c2ccc3c(Nc4cc(Oc5cc(F)cc(F)c5)cc(C(=O)O)c4)c(S(=O)(=O)NC4CC4)cnc3c2)c(OC)n1` [Compound 1]: the IC50 in experiment [1] was 100 µM; in [2] it was 39.8 µM; in [3], 50.1 µM; in [4], 12.6 µM; in experiment [7], 6.31 µM; in [8], 25.1 µM. The IC50 was 100 µM in experiment [9]; 50.1 µM in experiment [12]; 31.6 µM in experiment [14]; 31.6 µM in experiment [15]; 7.94 µM in experiment [16]; 31.6 µM in experiment [17]. Moreover, the IC50 in experiment [21] and in experiment [22] was 31.6 µM throughout. Also, the EC50 in experiment [5] was 39.8 µM; in experiment [10] it was 50.1 µM; in experiment [11], 39.8 µM; in experiment [13] it was 100 µM; in experiment [18], 31.6 µM; in [19] it was 31.6 µM. Besides, the EC50 in experiment [20] was 50.1 µM. Moreover, in [6], the “pIC50 Serotonin Receptor 5H1 ANT” value is 4.7.
